# Molecular target: T1, Bile salt-activated lipase (Bos taurus, UniProt P30122)
# T1 sequence (P30122 whole entry): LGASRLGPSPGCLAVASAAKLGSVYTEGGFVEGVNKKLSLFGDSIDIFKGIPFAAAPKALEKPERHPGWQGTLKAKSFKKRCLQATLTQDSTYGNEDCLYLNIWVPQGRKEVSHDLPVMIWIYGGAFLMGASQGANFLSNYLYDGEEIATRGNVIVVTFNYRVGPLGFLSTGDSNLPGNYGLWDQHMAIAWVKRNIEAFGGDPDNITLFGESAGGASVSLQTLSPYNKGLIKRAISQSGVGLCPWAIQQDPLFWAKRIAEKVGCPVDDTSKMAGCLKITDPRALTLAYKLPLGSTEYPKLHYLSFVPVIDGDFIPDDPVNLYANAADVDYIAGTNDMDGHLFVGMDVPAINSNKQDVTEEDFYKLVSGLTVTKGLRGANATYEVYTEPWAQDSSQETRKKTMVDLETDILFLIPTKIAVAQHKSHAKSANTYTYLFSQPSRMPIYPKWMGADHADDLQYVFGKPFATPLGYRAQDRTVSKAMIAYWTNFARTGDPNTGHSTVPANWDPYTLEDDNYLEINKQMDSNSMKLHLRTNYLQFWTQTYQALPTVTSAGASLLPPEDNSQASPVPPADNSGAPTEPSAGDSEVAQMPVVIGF
# Experiment: Bimolecular rate constant (ki) for the Pancreatic cholesterol esterase-catalyzed hydrolysis of 4-nitrophenyl butyrate
# Settings: for kon: read-out: kon (M-1-s-1)
kon (M-1-s-1),kon [M⁻¹ s⁻¹],SMILES
4000 M-1-s-1,4000,"CCCCNC(=O)Oc1ccc2ccccc2c1-c1c(OC(=O)NCCCC)ccc2ccccc12 [Butyl-carbamic acid 2'-butylcarbamoyloxy-[1,1']binaphthalenyl-2-yl ester]"
500000.000000 M-1-s-1,500000,"CCCCNC(=O)Oc1ccc2ccccc2c1-c1c(O)ccc2ccccc12 [Butyl-carbamic acid 2'-hydroxy-[1,1']binaphthalenyl-2-yl ester]"
6000 M-1-s-1,6000,"CCCCNC(=O)Oc1ccc2ccccc2c1-c1c(OC(=O)CCC)ccc2ccccc12 [Butyric acid 2'-butylcarbamoyloxy-[1,1']binaphthalenyl-2-yl ester]"
